These results are taken from paper PMC4172049 (Drug Design, Development and Therapy, 2014).

This test deals with T1, Human recombinant sPLA2-V (Homo sapiens, UniProt P39877).
T1 sequence (P39877 21-138): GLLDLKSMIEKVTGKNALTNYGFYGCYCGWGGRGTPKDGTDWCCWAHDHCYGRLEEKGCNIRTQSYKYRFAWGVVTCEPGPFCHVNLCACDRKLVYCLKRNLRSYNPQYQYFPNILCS
Kind of test: sPLA2-V activity assay.

SMILES strings stand for the structures.

Broadly, the IC50 is the concentration that inhibits the measured activity by half. Regarding `C[C@@H]1C[C@H]2[C@@H]3CCC4=CC(=O)C=C[C@]4(C)[C@@]3(F)[C@@H](O)C[C@]2(C)[C@@]1(O)C(=O)CO` [Dexamethasone], the IC50 amounted to 650 ± 150 nM.
